Assay results from patent US11214803B2, “Modulators of YAP1 expression” (Ionis Pharmaceuticals, Inc., priority 2019, dated 2022).
Strand notation (5' to 3'): a small letter for the sugar, then the base; units joined by * are phosphorothioate-linked, units joined directly phosphodiester-linked; [ ] holds rarer units or linkages, { } end groups; capitals alone tell only the bases. e = 2'-O-(2-methoxyethyl) (MOE); k = constrained ethyl (cEt); [5mC] = 5-methylcytosine; d = 2'-deoxy (DNA); m = 2'-O-methyl

system: Yap1 mRNA; experiment: Antisense inhibition of human Yap1 in SNU-449 cells by modified oligonucleotides, single dose (Example 5, RTS36584); type: cell-based; details: Table 39; SNU-449 cells, 10,000 cells per well, free uptake, 2,000 nM oligonucleotide, approx. 48 hours; RTS36584; normalized to RIBOGREEN; Yap1 mRNA relative to untreated control
In short: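 SNU-449 cells were given 2,000 nM oligonucleotide by free uptake for about 48 h. Yap1 mRNA was then measured by RT-qPCR with primer probe set RTS36584, normalized to total RNA by RIBOGREEN and expressed as percent of untreated control.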

| Substance | YAP1 (% UTC) |
| --- | --- |
| 1198379 (kA*dG*dT*dA*dT*dG*dT*dG*dG*d[5mC]*dA*kA*eT*kA*eA*kT) [Compound 1198379] | 45 |
| 1198383 (kA*dT*dT*dA*dG*dA*dG*dT*dA*dT*dG*kT*eG*kG*e[5mC]*kA; antisense) [Compound 1198383] | 31 |
| 1198454 (kA*dG*dA*d[5mC]*dT*dA*dA*dG*dT*dA*dA*kG*eG*kT*eT*kT; antisense) [Compound 1198454] | 39 |
| 1198409 (kA*dG*dT*dG*d[5mC]*dT*dT*dT*dG*dG*dA*kA*eG*kA*eT*k[5mC]; antisense) [Compound 1198409] | 19 |

same assay, conditions: Table 40 (separate experiment); SNU-449 cells, 10,000 cells per well, free uptake, 2,000 nM oligonucleotide, approx. 48 hours; RTS36584; normalized to RIBOGREEN; Yap1 mRNA relative to untreated control

| Substance | YAP1 (% UTC) |
| --- | --- |
| 1198777 (kA*eT*kT*dG*d[5mC]*dA*dA*dT*d[5mC]*dT*dG*dT*e[5mC]*eT*kG*kA; antisense) [Compound 1198777] | 84 |
| 1198801 (antisense kG*eA*k[5mC]*dT*dA*dA*dG*dT*dA*dA*dG*dG*eT*eT*kT*k[5mC]) [Compound 1198801] | 47 |
| 1198439 (kA*dG*dT*dG*dT*dA*dT*dG*dT*d[5mC]*dA*kG*eA*kA*eG*kA; antisense) [Compound 1198439] | 6 |
| 1198438 (kT*dG*dT*dA*dT*dG*dT*d[5mC]*dA*dG*dA*kA*eG*kA*eG*kT; antisense) [Compound 1198438] | 7 |

same assay, conditions: Table 41; SNU-449 cells, 10,000 cells per well, free uptake, 2,000 nM modified oligonucleotide, approximately 48 hours; RTS36584; normalized to RIBOGREEN; Yap1 mRNA relative to untreated control cells

| Substance | YAP1 (% UTC) |
| --- | --- |
| 1198775 (k[5mC]*eA*kA*d[5mC]*dT*d[5mC]*dT*dT*dA*dT*dA*dT*eG*eG*kT*kT; antisense) [Compound 1198775] | 113 |
| 1198737 (k[5mC]*eT*kG*dA*dG*dG*dT*dA*dT*dA*dA*d[5mC]*eT*eG*kG*kG; antisense) [Compound 1198737] | 24 |
| 1198771 (kT*e[5mC]*kT*dT*dA*dT*dA*dT*dG*dG*dT*dT*eT*eT*kG*kT; antisense) [Compound 1198771] | 85 |

same assay, conditions: Table 42 (separate experiment); SNU-449 cells, 10,000 cells per well, free uptake, 2,000 nM modified oligonucleotide, approximately 48 hours; RTS36584; normalized to RIBOGREEN; Yap1 mRNA relative to untreated control cells

| Substance | YAP1 (% UTC) |
| --- | --- |
| 1198711 (kG*kA*d[5mC]*dT*dA*dA*dG*dT*dA*dA*dG*dG*kT*eT*kT*e[5mC]; antisense) [Compound 1198711] | 60 |
| 1198225 (k[5mC]*kA*d[5mC]*dT*dT*dT*dT*dA*d[5mC]*dA*dT*eT*eA*eG*kG*kA) [Compound 1198225] | 67 |

same assay, conditions: Table 43 experiment; SNU-449 cells, 10,000 cells per well, free uptake, 2,000 nM, approximately 48 hours; RTS36584; Yap1 mRNA normalized to RIBOGREEN, relative to untreated control cells

| Substance | YAP1 (% UTC) |
| --- | --- |
| 1198257 (kA*dT*dT*dG*d[5mC]*dA*dA*dT*d[5mC]*dT*dG*eT*e[5mC]*eT*kG*kA; antisense) [Compound 1198257] | 85 |
| 1198246 (kT*k[5mC]*dA*dG*dA*dT*dT*dT*dA*dG*dG*eA*eT*eG*k[5mC]*kA; antisense) [Compound 1198246] | 30 |
| 1198251 (kT*k[5mC]*dT*dT*dA*dT*dA*dT*dG*dG*dT*eT*eT*eT*kG*kT; antisense) [Compound 1198251] | 83 |
| 1198484 (antisense kG*k[5mC]*dA*d[5mC]*dT*dT*dT*dT*dA*d[5mC]*dA*eT*kT*eA*kG*eG) [Compound 1198484] | 18 |
| 1095595 (antisense k[5mC]*kA*d[5mC]*dT*dG*dA*dG*dG*dT*dA*dT*eA*eA*e[5mC]*kT*kG) [Compound 1095595] | 63 |

same assay, conditions: Table 44 experiment; SNU-449 cells, 10,000 cells per well, free uptake, 2,000 nM, approximately 48 hours; RTS36584; Yap1 mRNA normalized to RIBOGREEN, relative to untreated control cells

| Substance | YAP1 (% UTC) |
| --- | --- |
| 1198903 (kA*kT*dT*dA*dG*dA*dG*dT*dA*dT*dG*kT*dG*kG*d[5mC]*kA; antisense) [Compound 1198903] | 24 |
| 1198494 (antisense kG*kT*dG*d[5mC]*dT*dT*dT*dG*dG*dA*dA*eG*kA*eT*k[5mC]*eT) [Compound 1198494] | 15 |
| 1198501 (kG*kA*dT*dT*dT*dA*dG*dG*dA*dT*dG*e[5mC]*kA*eT*kG*eG; antisense) [Compound 1198501] | 5 |
| 1198541 (antisense kT*kT*dA*dG*dA*d[5mC]*dT*dA*dA*dG*dT*eA*kA*eG*kG*eT) [Compound 1198541] | 34 |

same assay, conditions: Table 45; Yap1 mRNA as percent of untreated control, SNU-449 cells, single dose

| Substance | YAP1 (% UTC) |
| --- | --- |
| 1198974 (kA*kG*dA*d[5mC]*dT*dA*dA*dG*dT*dA*dA*kG*dG*kT*dT*kT; antisense) [Compound 1198974] | 73 |

same assay, conditions: Table 46; Yap1 mRNA as percent of untreated control, SNU-449 cells, single dose

| Substance | YAP1 (% UT) |
| --- | --- |
| 1198844 (kA*kT*dA*dG*dT*dG*d[5mC]*dT*dT*dT*dG*kG*eA*kA*eG*kA; antisense) [Compound 1198844] | 56 |
| 1198848 (kA*kT*dT*dT*dA*dG*dG*dA*dT*dG*d[5mC]*kA*eT*kG*eG*kT; antisense) [Compound 1198848] | 47 |
| 1198853 (kA*kT*dT*d[5mC]*dA*dG*dA*dT*dT*dT*dA*kG*eG*kA*eT*kG; antisense) [Compound 1198853] | 105 |
| 1198808 (antisense kG*kA*dA*dA*dT*dT*dG*dT*d[5mC]*dT*d[5mC]*kA*eT*kG*e[5mC]*k[5mC]) [Compound 1198808] | 40 |
| 1198811 (antisense kA*kT*dG*dG*dA*dA*dA*dT*dT*dG*dT*k[5mC]*eT*k[5mC]*eA*kT) [Compound 1198811] | 38 |
| 1095427 (antisense k[5mC]*kA*d[5mC]*dT*dG*dA*dG*dG*dT*dA*dT*kA*eA*k[5mC]*eT*kG) [Compound 1095427] | 45 |

same assay, conditions: Table 48; Yap1 mRNA level relative to untreated control; modified oligonucleotides targeting SEQ ID NO.: 1 and 2

| Substance | YAP1 (% UT) |
| --- | --- |
| 1197201 (antisense kT*k[5mC]*kT*dT*dA*dT*dA*dT*dG*dG*dT*dT*dT*kT*kG*kT) [Compound 1197201] | 46 |
| 1198286 (kA*kA*kT*dT*dG*dT*d[5mC]*dT*d[5mC]*dA*dT*dG*k[5mC]*e[5mC]*kT*eT; antisense) [Compound 1198286] | 17 |
| 1197214 (antisense kA*kG*kT*dG*dT*dA*dT*dG*dT*d[5mC]*dA*dG*dA*kA*kG*kA) [Compound 1197214] | 5 |

same assay, conditions: Table 50; Yap1 mRNA remaining as percent of untreated control (UT), SNU-449 cells, single dose

| Substance | YAP1 (% UT) |
| --- | --- |
| 1197247 (antisense kA*kA*kG*d[5mC]*mA*d[5mC]*dT*dT*dT*dT*dA*d[5mC]*dA*kT*kT*kA) [Compound 1197247] | 47 |
| 1198587 (antisense kG*kA*kT*dT*dT*dA*dG*dG*dA*dT*dG*d[5mC]*kA*kT*kG*eG) [Compound 1198587] | 41 |
| 1197284 (kA*kG*kT*dA*mU*dG*dT*dG*dG*d[5mC]*dA*dA*dT*kA*kA*kT; antisense) [Compound 1197284] | 35 |
| 1095454 (antisense k[5mC]*kT*kG*dA*dG*dG*dT*dA*dT*dA*dA*d[5mC]*kT*kG*kG*eG) [Compound 1095454] | 47 |

same assay, conditions: Table 51; Yap1 mRNA remaining as percent of untreated control (UT), SNU-449 cells, single dose

| Substance | YAP1 (% UT) |
| --- | --- |
| 1197314 (kA*kA*kA*dG*mU*dG*dT*dA*dT*dG*dT*d[5mC]*dA*kG*kA*kA; antisense) [Compound 1197314] | 22 |
| 1197305 (kA*k[5mC]*kT*d[5mC]*mU*dT*dA*dT*dA*dT*dG*dG*dT*kT*kT*kT; antisense) [Compound 1197305] | 30 |
| 1197266 (kT*kG*kT*dA*mA*dT*dA*dT*dT*dG*d[5mC]*dA*dA*kT*k[5mC]*kT) [Compound 1197266] | 31 |
| 1197299 (kA*kG*kG*dA*mU*dG*d[5mC]*dA*dT*dG*dG*dT*dT*kT*kT*kT; antisense) [Compound 1197299] | 41 |

same assay, conditions: Table 52; Yap1 mRNA, modified oligonucleotides targeting SEQ ID NO: 1 and 2

| Substance | YAP1 (% UT) |
| --- | --- |
| 1200815 (k[5mC]*kA*k[5mC]*dT*dT*mU*dT*dA*d[5mC]*dA*dT*dT*dA*kG*kG*kA; antisense) [Compound 1200815] | 55 |
| 1200871 (kG*kA*k[5mC]*dT*dA*mA*dG*dT*dA*dA*dG*dG*dT*kT*kT*k[5mC]; antisense) [Compound 1200871] | 65 |
| 1200863 (k[5mC]*kT*kT*dT*dA*mA*dA*dG*dT*dG*dT*dA*dT*kG*kT*k[5mC]; antisense) [Compound 1200863] | 41 |
| 1200803 (kG*kG*kT*dA*dT*mA*dA*d[5mC]*dT*dG*dG*dG*d[5mC]*kA*kA*kA; antisense) [Compound 1200803] | 22 |

same assay, conditions: Yap1 mRNA, percent of untreated control; modified oligonucleotides targeting SEQ ID NO: 1 and 2; Table 47

| Substance | YAP1 (% UT) |
| --- | --- |
| 1198876 (kT*kA*dA*dA*dG*dT*dG*dT*dA*dT*dG*kT*e[5mC]*kA*eG*kA; antisense) [Compound 1198876] | 31 |
| 1198860 (kA*kA*d[5mC]*dT*d[5mC]*dT*dT*dA*dT*dA*dT*kG*eG*kT*eT*kT; antisense) [Compound 1198860] | 82 |
